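Tested at 5 concentrations; 48 h exposure; 96-well plates; endpoints linearly interpolated, else capped at highest concentration. GI50: concentration for 50% inhibition of growth.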 Active and inactive are the calls of the source. Cut-off read from the data, not from the text of the source: active = GI50 up to about 1.1 µM and inactive = higher.
How the values were obtained:
Test in all cases: NCI tumour cell line growth inhibition, 48 h
[1] = tested on: OVCAR-8
[2] = tested on: UO-31
[3] = tested on: MDA-MB-231
[4] = tested on: SF-295
[5] = tested on: SK-MEL-5
[6] = tested on: NCI-H522
[7] = tested on: RXF 393
[8] = tested on: EKVX
[9] = tested on: T47D
[10] = tested on: NCI-H460
[11] = tested on: A549
[12] = tested on: M14
[13] = tested on: U-251
[14] = tested on: SR
[15] = tested on: NCI/ADR-RES
[16] = tested on: MOLT-4
[17] = tested on: OVCAR-3
[18] = tested on: SN12C
[19] = tested on: OVCAR-5
[20] = tested on: HT-29

Structure (SMILES)	GI50 [1]	GI50 [2]	GI50 [3]	GI50 [4]	GI50 [5]	GI50 [6]	GI50 [7]	GI50 [8]	GI50 [9]	GI50 [10]	GI50 [11]	GI50 [12]	GI50 [13]	GI50 [14]	GI50 [15]	GI50 [16]	GI50 [17]	GI50 [18]	GI50 [19]	GI50 [20]
Cc1nc2ccc(Br)cc2c(=O)n1-c1nnc(C(C)(C)C)s1	> 10 µM (inactive)	2 µM (inactive)	> 10 µM (inactive)	> 10 µM (inactive)	> 10 µM (inactive)	> 10 µM (inactive)	> 10 µM (inactive)	> 10 µM (inactive)	> 10 µM (inactive)	> 10 µM (inactive)	> 10 µM (inactive)	> 10 µM (inactive)	> 10 µM (inactive)	> 10 µM (inactive)	> 10 µM (inactive)	> 10 µM (inactive)	> 10 µM (inactive)	> 10 µM (inactive)	> 10 µM (inactive)	> 10 µM (inactive)
COc1cccc(C2CC(=O)c3cc(N4CCCC4)ccc3N2)c1 (centres undefined)	0.037 µM (active)	0.0735 µM (active)	0.0766 µM (active)	0.0358 µM (active)	0.0252 µM (active)	0.0177 µM (active)	0.0177 µM (active)	0.27 µM (active)	56 µM (inactive)	0.0402 µM (active)	0.036 µM (active)	0.0234 µM (active)	0.0248 µM (active)	0.0144 µM (active)	0.0173 µM (active)	0.0338 µM (active)	0.0344 µM (active)	0.0418 µM (active)	0.0608 µM (active)	0.0211 µM (active)
Clc1ccc(-c2nc3cc(C45CC6CC(CC(C6)C4)C5)ccc3[nH]2)cc1	28.7 µM (inactive)	15.3 µM (inactive)	> 100 µM (inactive)	57.7 µM (inactive)	7.18 µM (inactive)	19.2 µM (inactive)	72.6 µM (inactive)	> 94.2 µM (inactive)	24.2 µM (inactive)	17.6 µM (inactive)	14.8 µM (inactive)	17 µM (inactive)	20.1 µM (inactive)	5.64 µM (inactive)	20.5 µM (inactive)	0.551 µM (active)	21.7 µM (inactive)	50.5 µM (inactive)	> 100 µM (inactive)	3.72 µM (inactive)
COc1cc(/C=C2\C(=O)N(Cc3ccccc3)C(c3ccccc3)S2(=O)=O)cc(OC)c1OC (centres undefined)	37.2 µM (inactive)	21.8 µM (inactive)	> 100 µM (inactive)	27 µM (inactive)	12 µM (inactive)	14.2 µM (inactive)	62.7 µM (inactive)	17.1 µM (inactive)	29.2 µM (inactive)	35.4 µM (inactive)	29.9 µM (inactive)	52.7 µM (inactive)	92.3 µM (inactive)	14.3 µM (inactive)	27.6 µM (inactive)	4.11 µM (inactive)	47.3 µM (inactive)	74 µM (inactive)	> 100 µM (inactive)	51.6 µM (inactive)
CC(CCc1nc2ccccc2s1)(c1ccc(O)cc1)c1ccc(O)cc1	21.7 µM (inactive)	16.1 µM (inactive)	17.9 µM (inactive)	15.6 µM (inactive)	18.4 µM (inactive)	15 µM (inactive)	18 µM (inactive)	16.8 µM (inactive)	24.8 µM (inactive)	16.4 µM (inactive)	18.3 µM (inactive)	16.1 µM (inactive)	14.6 µM (inactive)	13.6 µM (inactive)	25.4 µM (inactive)	12.7 µM (inactive)	17.5 µM (inactive)	17.9 µM (inactive)	18.1 µM (inactive)	20.1 µM (inactive)
N#Cc1c(N2CCN(c3ccc([N+](=O)[O-])cc3)CC2)[n+]([O-])c2ccc(Cl)cc2[n+]1[O-]	1.11 µM (active)	1.43 µM (inactive)	1.04 µM (active)	1.91 µM (inactive)	6.38 µM (inactive)	0.721 µM (active)	1.79 µM (inactive)	1.71 µM (inactive)	0.716 µM (active)	0.0644 µM (active)	2.02 µM (inactive)	1.56 µM (inactive)	0.738 µM (active)	0.016 µM (active)	1.07 µM (active)	1.18 µM (inactive)	0.745 µM (active)	0.966 µM (active)	3.4 µM (inactive)	1.31 µM (inactive)
C(/Cc1ccc2c(c1)OCO2)=N\N=C1NCCCCN1	> 100 µM (inactive)	43.9 µM (inactive)	76.2 µM (inactive)	51.5 µM (inactive)	25.4 µM (inactive)	> 100 µM (inactive)	> 100 µM (inactive)	50 µM (inactive)	54.5 µM (inactive)	45.8 µM (inactive)	> 100 µM (inactive)	16.4 µM (inactive)	86.3 µM (inactive)	69.3 µM (inactive)	> 100 µM (inactive)	48.4 µM (inactive)	> 100 µM (inactive)	73.6 µM (inactive)	34.7 µM (inactive)	47.8 µM (inactive)
C=C1OC(=O)[C@]2([C@@H](/C=C/C)C=CC(=O)[C@H]2O)[C@@H]1O	> 100 µM (inactive)	> 100 µM (inactive)	> 100 µM (inactive)	> 100 µM (inactive)	> 100 µM (inactive)	> 100 µM (inactive)	> 100 µM (inactive)	> 100 µM (inactive)	> 100 µM (inactive)	> 100 µM (inactive)	> 100 µM (inactive)	> 100 µM (inactive)	> 100 µM (inactive)	73.6 µM (inactive)	> 100 µM (inactive)	> 100 µM (inactive)	> 100 µM (inactive)	> 100 µM (inactive)	> 100 µM (inactive)	> 100 µM (inactive)
COc1cc(C)cc2c1C(=O)C(NC(C)=O)=CC2=O	> 100 µM (inactive)	> 100 µM (inactive)	98.4 µM (inactive)	> 100 µM (inactive)	> 100 µM (inactive)	> 100 µM (inactive)	> 100 µM (inactive)	> 100 µM (inactive)	59.3 µM (inactive)	> 100 µM (inactive)	> 100 µM (inactive)	> 100 µM (inactive)	> 100 µM (inactive)	55.1 µM (inactive)	> 100 µM (inactive)	28.2 µM (inactive)	> 100 µM (inactive)	> 100 µM (inactive)	> 100 µM (inactive)	> 100 µM (inactive)
CC(C)OC(=O)c1ccc(NCc2cc(O)ccc2O)cc1Cl	2.77 µM (inactive)	0.993 µM (active)	4.18 µM (inactive)	12.2 µM (inactive)	2.73 µM (inactive)	0.206 µM (active)	2.61 µM (inactive)	4.92 µM (inactive)	1.56 µM (inactive)	6.08 µM (inactive)	12 µM (inactive)	7.13 µM (inactive)	3.95 µM (inactive)	0.695 µM (active)	2.78 µM (inactive)	0.695 µM (active)	2.56 µM (inactive)	4 µM (inactive)	8.43 µM (inactive)	9.57 µM (inactive)
COc1cc2cc(C(=O)N3CC(CCl)c4c3cc(N(C)C)c3ccccc43)[nH]c2c(OC)c1OC (centres undefined)	< 0.01 µM (active)	< 0.01 µM (active)	0.0378 µM (active)	< 0.01 µM (active)	< 0.01 µM (active)	< 0.01 µM (active)	0.0137 µM (active)	< 0.01 µM (active)	< 0.01 µM (active)	< 0.01 µM (active)	< 0.01 µM (active)	< 0.01 µM (active)	< 0.01 µM (active)	< 0.01 µM (active)	< 0.01 µM (active)	< 0.01 µM (active)	0.0127 µM (active)	< 0.01 µM (active)	< 0.0108 µM (active)	< 0.01 µM (active)
O=C(O)c1cc2ccccc2c(/N=N/c2ccc(S(=O)(=O)Nc3nccs3)cc2)c1O	> 100 µM (inactive)	> 100 µM (inactive)	> 100 µM (inactive)	> 100 µM (inactive)	> 100 µM (inactive)	> 100 µM (inactive)	> 100 µM (inactive)	> 100 µM (inactive)	> 100 µM (inactive)	> 100 µM (inactive)	> 100 µM (inactive)	> 100 µM (inactive)	> 100 µM (inactive)	> 100 µM (inactive)	> 100 µM (inactive)	> 100 µM (inactive)	> 100 µM (inactive)	> 100 µM (inactive)	> 100 µM (inactive)	> 100 µM (inactive)
O=C1c2nc3n(c2C(=O)c2c1nc1n2CCC1)CCC3	5.46 µM (inactive)	18.8 µM (inactive)	> 10 µM (inactive)	5.37 µM (inactive)	1.44 µM (inactive)	6.44 µM (inactive)	2.74 µM (inactive)	15.6 µM (inactive)	> 10 µM (inactive)	1.82 µM (inactive)	4.39 µM (inactive)	1.76 µM (inactive)	6.79 µM (inactive)	3.01 µM (inactive)	> 10 µM (inactive)	5.46 µM (inactive)	2.71 µM (inactive)	3.64 µM (inactive)	16.9 µM (inactive)	3.14 µM (inactive)
CC(=O)N1C(Nc2cnc3ccccc3c2)CCN1c1ccccc1 (centres undefined)	> 10 µM (inactive)	> 10 µM (inactive)	> 10 µM (inactive)	> 10 µM (inactive)	> 10 µM (inactive)	> 10 µM (inactive)	> 10 µM (inactive)	> 10 µM (inactive)	> 10 µM (inactive)	> 10 µM (inactive)	> 10 µM (inactive)	> 10 µM (inactive)		> 10 µM (inactive)	> 10 µM (inactive)	> 10 µM (inactive)	> 10 µM (inactive)	> 10 µM (inactive)	> 10 µM (inactive)	> 10 µM (inactive)
